Holding throughout (assay type): cell-based
Assay [1] has as its target rat mGlu5 (Rattus norvegicus (Rat), UniProt P31424). In words: mGlu5 Ca2+ flux assay. The settings on record: for activity at 30 µM: read-out: rat mGlu5 Glu max (%). As for the experimental part: (§1) HEK 293A cells stably expressing rat mGlu5 were plated in black-walled, clear-bottomed, poly-D-lysine coated 384-well plates in 20 μL of assay medium (DMEM containing 10% dialyzed FBS, 20 mM HEPES, 100 units/mL penicillin/streptomycin plus 250 ng/mL Fungizone, and 1 mM sodium pyruvate) at a density of 20K cells/well. The cells were grown overnight at 37° C. in the presence of 5% CO2. The next day, medium was removed and the cells incubated with 20 μL of […] Fluo-4, AM prepared as a 2.3 mM stock in DMSO and mixed in a 1:1 ratio with 10% (w/v) pluronic acid F-127 and diluted in assay buffer (Hank's balanced salt solution, 20 mM HEPES, and 2.5 mM probenecid) for 45 minutes at 37° C. Dye was removed, 20 μL of assay buffer was added, and the plate was incubated for 5 minutes at room temperature.
(§2) Ca^2+ flux was measured using the Functional Drug Screening System (FDSS7000, Hamamatsu, Japan). After establishment of a fluorescence baseline for about 3 seconds, the compounds of the present invention were added to the cells, and the response in cells was measured. 2.3 minutes later an EC20 concentration of the mGlu5 receptor agonist glutamate was added to the cells, and the response of the cells was measured for 1.9 minutes; an EC80 concentration of agonist was added and readings taken for an additional 1.7 minutes. All test compounds were dissolved and diluted to a concentration of 10 mM in 100% DMSO. Compounds were then serially diluted 1:3 in DMSO into 10 point concentration response curves, transferred to daughter plates, and further diluted into assay buffer to a 2× stock. Calcium fluorescence measures were recorded as fold over basal fluorescence; raw data was then normalized to the maximal response to glutamate.
(§3) The raw data file containing all time points was used as the data source in the analysis template. This was saved by the FDSS as a tab-delimited text file. Data were normalized using a static ratio function (F/F0) for each measurement of the total 360 values per well divided by each well's initial value. Data were then reduced to peak amplitudes (Max−Initial Min) using a time range that starts approximately 3 seconds prior to the glutamate EC20/EC80 addition and continues for approximately 90-120 seconds. This is sufficient time to capture the peak amplitude of the cellular calcium response. Individual amplitudes were expressed as % EMax by multiplying each amplitude by 100 and then dividing the product by the mean of the amplitudes derived from the glutamate ECMax-treated wells. EC50 values for test compounds were generated by fitting the normalized values versus the log of the test compound concentration (in mol/L) using a 4 parameter logistic equation where none of the parameters were fixed. Each of the three values collected at each concentration of test compound were weighted evenly.

Assay [2] deals with rat mGlu3 (Rattus norvegicus (Rat), UniProt P31422). In words: mGlu3 Ca2+ flux assay. The conditions noted are these: for IC50: NAM, glutamate EC80, >10,000 = decrease without plateau, >30,000 = no measurable activity; for remaining activity at 30 µM: read-out: rat mGlu3 Glu max (%). As for the experimental part: Gα15/TREx cells stably expressing rat mGlu3 were plated in black-walled, clear-bottomed, poly-D-lysine coated 384-well plates in 20 μL of assay medium (DMEM containing 10% dialyzed FBS, 20 mM HEPES, 25 ng/mL tetracycline, 100 units/mL penicillin/streptomycin plus 250 ng/mL Fungizone, and 1 mM sodium pyruvate) at a density of 15K cells/well. The cells were grown overnight at 37° C. in the presence of 5% CO2. […] Dye was removed, 20 μL of assay buffer was added, and the plate was incubated for 10 minutes at room temperature.
as §2, with “mGlu3” for “mGlu5”
as §3, with “EC80” for “EC20/EC80”, “90” for “90-120”
In general terms: Calcium flux is commonly read through the fluorescence of an indicator in the cells.

The target of assay [3] is rat mGlu2 (Rattus norvegicus (Rat), UniProt P31421). Kind of assay: mGlu2 Ca2+ flux assay. The settings on record: NAM, glutamate EC80; >30,000 = no measurable activity. As for the experimental part: as §1, with “Gα15 HEK293” for “HEK 293A”, “mGlu2” for “mGlu5”, “HEPES,” for “HEPES, 100 units/mL penicillin/streptomycin plus 250 ng/mL Fungizone,”, “12K” for “20K”
as §2, with “mGlu2” for “mGlu5”
as §3, with “EC80” for “EC20/EC80”, “90” for “90-120”, “ECMax” for “EMax”, “IC50” for “EC50”

Setting [4] is: PAM, glutamate EC20, >10,000 = no plateau, >30,000 = no measurable activity, read-out: rat mGlu5 EC50 or IC50.
The mark [5] stands for this setting: PAM, response at 30 μM test compound as percentage of maximal response to glutamate.
The mark [6] stands for this setting: response at 30 μM test compound as percentage of maximal response to glutamate.

Read-outs that look alike come from different tables or passages of the source.

Sequence of rat mGlu5 (P31424 21-1203): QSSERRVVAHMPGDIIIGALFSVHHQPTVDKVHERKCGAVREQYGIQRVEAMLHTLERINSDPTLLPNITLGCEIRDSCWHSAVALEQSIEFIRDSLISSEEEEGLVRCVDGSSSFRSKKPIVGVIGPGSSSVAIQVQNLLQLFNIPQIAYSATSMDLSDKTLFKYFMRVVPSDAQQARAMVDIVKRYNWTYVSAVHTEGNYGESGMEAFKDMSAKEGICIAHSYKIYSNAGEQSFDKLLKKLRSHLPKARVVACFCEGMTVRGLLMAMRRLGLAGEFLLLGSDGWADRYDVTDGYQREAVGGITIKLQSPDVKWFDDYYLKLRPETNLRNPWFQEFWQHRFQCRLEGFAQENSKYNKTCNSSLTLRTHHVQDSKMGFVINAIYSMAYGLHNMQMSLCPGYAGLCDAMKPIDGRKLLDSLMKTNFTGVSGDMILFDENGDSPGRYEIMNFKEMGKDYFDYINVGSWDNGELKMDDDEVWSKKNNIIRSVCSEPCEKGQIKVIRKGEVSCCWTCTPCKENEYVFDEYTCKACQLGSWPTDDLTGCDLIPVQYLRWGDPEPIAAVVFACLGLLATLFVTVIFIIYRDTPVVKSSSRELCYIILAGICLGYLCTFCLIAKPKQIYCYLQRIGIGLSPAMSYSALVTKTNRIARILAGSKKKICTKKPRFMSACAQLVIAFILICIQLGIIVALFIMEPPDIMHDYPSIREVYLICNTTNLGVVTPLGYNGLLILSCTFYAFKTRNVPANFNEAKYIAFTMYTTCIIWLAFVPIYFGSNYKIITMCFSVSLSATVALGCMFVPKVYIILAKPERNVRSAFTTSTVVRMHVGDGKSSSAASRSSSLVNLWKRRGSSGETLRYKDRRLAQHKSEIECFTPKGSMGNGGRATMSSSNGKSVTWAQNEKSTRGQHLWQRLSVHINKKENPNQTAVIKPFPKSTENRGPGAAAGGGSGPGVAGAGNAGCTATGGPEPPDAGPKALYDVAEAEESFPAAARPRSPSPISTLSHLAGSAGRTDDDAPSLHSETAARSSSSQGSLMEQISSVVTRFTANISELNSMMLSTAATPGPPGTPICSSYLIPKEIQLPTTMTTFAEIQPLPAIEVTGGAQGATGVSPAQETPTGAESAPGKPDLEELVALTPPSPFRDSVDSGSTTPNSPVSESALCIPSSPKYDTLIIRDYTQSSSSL
Sequence of rat mGlu2 (P31421 19-872): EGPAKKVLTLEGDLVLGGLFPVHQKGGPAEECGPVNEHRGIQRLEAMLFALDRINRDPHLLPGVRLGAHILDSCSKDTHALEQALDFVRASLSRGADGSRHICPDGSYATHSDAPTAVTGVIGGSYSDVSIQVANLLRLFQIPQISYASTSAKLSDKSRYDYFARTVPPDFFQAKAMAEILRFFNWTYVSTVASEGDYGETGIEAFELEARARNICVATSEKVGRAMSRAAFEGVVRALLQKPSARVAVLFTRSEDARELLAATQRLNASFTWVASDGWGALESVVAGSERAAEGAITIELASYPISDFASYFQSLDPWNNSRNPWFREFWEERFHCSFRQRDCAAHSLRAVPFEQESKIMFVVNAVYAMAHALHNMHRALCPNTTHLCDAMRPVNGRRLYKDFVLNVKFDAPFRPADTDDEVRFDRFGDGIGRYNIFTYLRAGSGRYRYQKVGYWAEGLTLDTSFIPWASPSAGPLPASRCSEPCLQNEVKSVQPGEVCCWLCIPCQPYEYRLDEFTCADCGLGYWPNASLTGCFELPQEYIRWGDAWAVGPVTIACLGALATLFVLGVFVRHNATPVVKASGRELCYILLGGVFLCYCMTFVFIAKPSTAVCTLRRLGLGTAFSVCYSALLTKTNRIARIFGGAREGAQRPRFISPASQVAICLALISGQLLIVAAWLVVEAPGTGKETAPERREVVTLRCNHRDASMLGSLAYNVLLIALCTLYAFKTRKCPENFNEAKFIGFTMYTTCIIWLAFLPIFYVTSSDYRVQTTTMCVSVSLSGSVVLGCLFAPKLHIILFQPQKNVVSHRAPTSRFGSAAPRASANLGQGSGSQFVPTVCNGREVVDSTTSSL
Sequence of rat mGlu3 (P31422 23-879): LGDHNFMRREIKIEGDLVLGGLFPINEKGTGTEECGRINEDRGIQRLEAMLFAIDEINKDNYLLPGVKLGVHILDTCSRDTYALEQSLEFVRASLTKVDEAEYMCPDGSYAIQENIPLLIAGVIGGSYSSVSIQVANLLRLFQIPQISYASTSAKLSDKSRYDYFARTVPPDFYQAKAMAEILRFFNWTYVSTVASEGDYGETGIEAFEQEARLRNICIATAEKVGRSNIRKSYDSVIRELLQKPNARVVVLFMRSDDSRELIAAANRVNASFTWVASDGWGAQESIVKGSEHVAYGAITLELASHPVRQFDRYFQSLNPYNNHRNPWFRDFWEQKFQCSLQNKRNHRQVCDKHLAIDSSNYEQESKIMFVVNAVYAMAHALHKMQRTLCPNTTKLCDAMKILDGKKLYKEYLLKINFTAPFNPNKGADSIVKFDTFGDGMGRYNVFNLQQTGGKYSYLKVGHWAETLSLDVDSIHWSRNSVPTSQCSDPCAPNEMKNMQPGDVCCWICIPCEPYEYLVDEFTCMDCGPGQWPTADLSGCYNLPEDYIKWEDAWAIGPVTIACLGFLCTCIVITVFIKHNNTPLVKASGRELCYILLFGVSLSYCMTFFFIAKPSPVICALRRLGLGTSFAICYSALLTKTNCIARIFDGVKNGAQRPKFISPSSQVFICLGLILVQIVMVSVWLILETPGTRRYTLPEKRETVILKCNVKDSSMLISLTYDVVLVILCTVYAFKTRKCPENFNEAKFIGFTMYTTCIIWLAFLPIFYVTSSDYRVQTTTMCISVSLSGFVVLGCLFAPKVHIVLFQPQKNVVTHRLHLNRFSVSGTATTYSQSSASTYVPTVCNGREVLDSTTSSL

In the case of `O=c1nc(OCCOc2ccccc2)ccn1-c1cccc(F)c1` [Compound 14, 1-(3-fluorophenyl)-4-(2-phenoxyethoxy)pyrimidin-2(1H)-one], the 50% effective concentration (EC50) (commonly the concentration giving half of the maximal effect) in assay [1] (setting [4]) turned out to be 3540 nM. Besides, the activity at 30 µM in assay [1] (setting [5]) came out at 77.5%. For the same compound, the IC50 – broadly, the concentration needed to halve the response being measured – in assay [2] was 296 nM; in assay [3], over 30000 nM. Besides, the remaining activity at 30 µM in assay [2] (setting [6]) was determined as 1.61%.
The matching figures for `O=c1cc(OCCOc2ccccc2F)ccn1-c1ccc(F)cc1` [Compound 30, 4-(2-(2-fluorophenoxy)ethoxy)-1-(4-fluorophenyl)pyridin-2(1H)-one]: 1870 nM, 92.8%, 897 nM, over 30000 nM and 2.48%.
In assay [1], `O=c1cc(OCCOc2ccccc2)ccn1-c1cccc(F)c1` [Compound 19, 1-(3-fluorophenyl)-4-(2-phenoxyethoxy)pyridin-2(1H)-one] yielded a concentration for a half-maximal effect (EC50) of 1970 nM. The activity at 30 µM in assay [1] (setting [5]) turned out to be 88%. The results for the IC50 in assay [2] and in assay [3] were 434 nM and over 30000 nM, respectively. In addition, the remaining activity at 30 µM in assay [2] (setting [6]) is 2.01%.
For `O=c1cc(OCCOc2ccccc2)ncn1-c1ccc(F)cc1` [Compound 28, 3-(4-Fluorophenyl)-6-(2-phenoxyethoxy)pyrimidin-4(3H)-one], in assay [1] (setting [4]), the half-maximal effective concentration (EC50) was determined as 1220 nM. Also, the activity at 30 µM in assay [1] (setting [5]) was found to be 89.8%. For the same compound, the IC50 in assay [2] was 1270 nM; in assay [3], over 30000 nM. The remaining activity at 30 µM in assay [2] (setting [6]) was 10.1%.
Take `CC(COc1ccccc1)Oc1ccn(-c2ccc(F)cc2)c(=O)c1` (stereo not drawn) [Compound 5, 1-(4-fluorophenyl)-4-((1-phenoxypropan-2-yl)oxy)pyridin-2(1H)-one]: the concentration giving a half-maximal response (EC50) in assay [1] (setting [4]) was over 10000 nM. Also, the activity at 30 µM in assay [1] (setting [5]) is 42.5%. For the same compound, the IC50 is 1160 nM in assay [2] and over 30000 nM in assay [3]. Also, the remaining activity at 30 µM in assay [2] (setting [6]) came out at 1.6%.
Consider `O=c1cc(OCCOc2cccc(F)c2)ccn1-c1ccc(F)cc1` [Compound 31, 4-(2-(3-fluorophenoxy)ethoxy)-1-(4-fluorophenyl)pyridin-2(1H)-one], for which, in assay [1] (setting [4]), the 50% effective concentration (EC50) stood at 1460 nM. Moreover, the activity at 30 µM in assay [1] (setting [5]) stood at 93.2%. The 50% inhibitory concentration (IC50) is 514 nM in assay [2] and over 30000 nM in assay [3]. Further, the remaining activity at 30 µM in assay [2] (setting [6]) is 1.95%.
Consider `O=c1cc(OCCOc2ncccc2Cl)ccn1-c1ccc(F)cc1` [Compound 54, 4-(2-((3-chloropyridin-2-yl)oxy)ethoxy)-1-(4-fluorophenyl)pyridin-2(1H)-one], for which the EC50 in assay [1] (setting [4]) was determined as 7820 nM. The activity at 30 µM in assay [1] (setting [5]) worked out at 94%. The IC50 in assay [2] was 443 nM; in assay [3], over 30000 nM. Further, the remaining activity at 30 µM in assay [2] (setting [6]) was 0.96%.
For `O=c1cc(OCCOc2cc(Cl)ccn2)ccn1-c1ccc(F)cc1` [Compound 49, 4-(2-((4-Chloropyridin-2-yl)oxy)ethoxy)-1-(4-fluorophenyl)pyridin-2(1H)-one], the 50% effective concentration (EC50) in assay [1] (setting [4]) was 8800 nM. Further, the activity at 30 µM in assay [1] (setting [5]) is 82.3%. The values for the half-inhibitory concentration (IC50) in assay [2] and in assay [3] were 563 nM and over 30000 nM, respectively. In assay [2] (setting [6]), the remaining activity at 30 µM is 0.73%.
With `O=c1cc(OCCOc2ccc(Cl)cn2)ccn1-c1ccc(F)cc1` [Compound 55, 4-(2-((5-chloropyridin-2-yl)oxy)ethoxy)-1-(4-fluorophenyl)pyridin-2(1H)-one], the EC50 in assay [1] (setting [4]) is over 10000 nM. In addition, the activity at 30 µM in assay [1] (setting [5]) stood at 25.2%. For the same compound, the values for the half-maximal inhibitory concentration (IC50) in assay [2] and in assay [3] were 729 nM and over 30000 nM, respectively. Also, the remaining activity at 30 µM in assay [2] (setting [6]) was found to be 0.32%.
The matching figures for `O=c1cc(OCCOc2ccc(Cl)cc2)ccn1-c1ccc(F)cc1` [Compound 39, 4-(2-(4-chlorophenoxy)ethoxy)-1-(4-fluorophenyl)pyridin-2(1H)-one]: 10000 nM, 81.1%, 634 nM, over 30000 nM and 1.56%.
For the compound `O=c1cc(OCCOc2ccccc2)ccn1-c1cc(F)cc(F)c1` [Compound 21, 1-(3,5-difluorophenyl)-4-(2-phenoxyethoxy)pyridin-2(1H)-one], in assay [1] (setting [4]), the EC50 was 818 nM. Moreover, in assay [1], the activity at 30 µM is 28.3%. In assay [2], half-maximal inhibition (IC50) required 799 nM and the remaining activity at 30 µM was found to be 7.25%.
With `O=c1cc(OCCOc2ccc(F)cn2)ccn1-c1ccc(F)cc1` [Compound 52, 1-(4-fluorophenyl)-4-(2-((5-fluoropyridin-2-yl)oxy)ethoxy)pyridin-2(1H)-one], the half-maximal inhibitory concentration (IC50) was 1060 nM in assay [2] and over 30000 nM in assay [3]. Besides, the remaining activity at 30 µM in assay [2] (setting [6]) worked out at 0.26%.

Values taken from patent publication US10399948B2, “Negative allosteric modulators of metabotropic glutamate receptor 3” (Vanderbilt University, priority 2015, dated 2019).
